Assay results: patent publication US20240018132A1, “5-HYDROXY-1,4-NAPHTHALENEDIONE FOR USE IN THE TREATMENT OF CANCER” (GODAVARI BIOREFINERIES LIMITED, priority 2020, published 2024)
pIC50: −log10 of the molar value.

How the values were obtained:
MDAMB231 [1] = experiment: In vitro antiproliferative assay (MTT assay), breast cancer cell line; assay type: cell-based; conditions: Homo sapiens, MDA-MB-231, 48 h, MTT assay, breast cancer MDAMB231, 48 hrs drug incubation
How it was run: (§1)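 Compound exposure lasted 48 h at 37 °C in 5% CO2, following a 24 h attachment period; DMSO stocks were 0.1 M. Metabolic reduction of MTT (0.5 mg/ml, 4 h), solubilized in DMSO, gave viability, plotted as log % viability versus log drug concentration.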

PC3 [2] = experiment: In vitro antiproliferative assay (MTT assay), prostate cancer cell line; assay type: cell-based; conditions: MTT assay, prostate cancer PC3, 48 hrs drug incubation
How it was run: as §1

MDAMB231 [3] = experiment: Soft agar colony-formation assay, breast cancer; assay type: cell-based; conditions: for anticancer activity in comparison with cisplatin, soft agar, breast cancer cell line: FIG. 51, MDAMB231; for pIC50: Homo sapiens, MDA-MB-231, 168 h, Soft Agar Assay, 1 week, Alamar Blue
Method: (§2) The Soft Agar Colony-formation Assay is an anchorage-independent growth assay in soft agar, which is one of the most stringent assays for detecting malignant transformation of cells. For this assay, malignant cells are cultured with appropriate controls in soft agar medium for 1-2 weeks. Following this incubation period, formed colonies can either be analyzed morphologically using cell stain and quantifying the number of colonies formed.
(§3) Briefly, for Soft Agar Assay a mixture of 50 ul of 2× medium (taken appropriately as per cell line) and 50 ul of 1.2% Bacto Agar were plated on to each well of 96 well micro titer assay plate. 10 ul of cells (of specific plating efficiency pre standardized for respective cell line) were mixed with 20 ul of 2× medium and 30 ul of 0.8% of Bacto Agar and 1.6 ul of drug (of appropriate concentration) in a vial and transferred to the solidified pre layers of the assay plates. The cells were then allowed to grow and form colonies at 37° C. and 5% CO2 for 1 week. An intermittent feeding with 50 ul of appropriate 2× medium was performed after 3 days of experimental set up. 16 ul of Alamar Blue (1.5 mg/ml) was then added to all the wells to quantify the developed colonies. The plates were incubated for 24 hrs at 37° C. Absorbance was then measured at 630 nm. XY graph of log Percent viability was then plotted against log drug concentration.
(§4) Following plating efficiencies were standardized for Soft Agar Assay: […]

PC3 [4] = experiment: Soft agar colony-formation assay, prostate cancer; assay type: cell-based; conditions: for anticancer activity in comparison with cisplatin, soft agar, prostate cancer cell line: FIG. 52, PC3; for pIC50: Homo sapiens, PC-3, 168 h, Soft Agar Assay, 1 week, Alamar Blue
Method: as §2, §3, §4

Human lymphocytes = experiment: Lymphocyte assay (MTT on normal cells); assay type: cell-based; conditions: human peripheral blood lymphocytes, MTT procedure
Method: Human lymphocytes were isolated from the peripheral blood. A pure population of lymphocytes was obtained based on differential centrifugation, in which diluted defibrinated blood was layered on a solution of sodium diatrizoate and polysucrose (HiSep LSM 1077) and centrifuged at low speeds for 30 mins.
Procedure: The separation of lymphocytes from fresh defibrinated blood was performed by the procedure described below: • 1. Diluted defibrinated fresh blood was overlaid gradually on (HiSeP LSM1077) and centrifuged at low speed for 30 mins. • 2. The lymphocyte layer (the buffy coat) was carefully removed in a new collection tube. • 3. The buffy coat was given another wash, by the diluent buffer Dulbecco's phosphate buffered saline (D.P.B.S) • 4. The supernatant was discarded and the pellet was resuspended in D.P.B.S. • 5. The viability of cells was checked by Haemocytometer. • 6. Cells with purity and viability of more than 95% were taken for the experiment. • 7. Purified lymphocytes were diluted at a concentration of 0.7 million/ml with sterile D.P.B.S and MTT procedure was performed exactly as described earlier.

MDAMB231 [5] = experiment: Wound Healing Assay (WHA), breast cancer cell line; assay type: cell-based; conditions: IC10 conc. of compound
Method: (§5) Wound Healing Assay (WHA) determines the ability of cancer stem cells to heal the wound formed in a confluent monolayer.
(§6) Procedure: 0.35×10^6 cells were plated in each well of 6 Tissue Culture well plates. The plate was incubated for 48 hrs at 37° C., 5% CO2. […] IC10 conc. of the respective compound was added into each well. The plates were incubated at 37° C., 5% CO2 and the width of scratch was measured at various time intervals such as 6, 24 and 48 hours. Average of 3 distances were taken for each time point using IS camera Measure. A plot of average width of scratch in micrometer was plotted against the time interval after treatment.

PC3 [6] = experiment: Wound Healing Assay (WHA), prostate cancer cell line; assay type: cell-based; conditions: IC10 conc. of compound
Method: as §5, §6

MDAMB231 [7] = experiment: In vitro sphere-forming assay (cancer stem cells), Mammosphere media; conditions: for viability at 0.0025 µM / viability at 0.025 µM / viability at 0.25 µM / viability at 2.5 µM / viability at 25 µM: Homo sapiens, MDA-MB-231, read-out: % Viability of spheres (MDAMB231); for 3D sphere count of MDAMB231: Mammosphere media, 2000 cells/well, n = 6 ± S.D
Method: (§7) In Vitro Sphere-forming Assay: Sphere assay measures the ability of cancer stem cells (CSCs) to form spheres in specially designed serum-free medium.
Mammosphere Media Preparation (For 100 mL): 1 g methyl cellulose autoclaved with magnetic stirrer, 100 ml plain media (MEBM) was added and dissolved under magnetic stirring. After complete dissolution FGF-80 μL, EGF-40 μL, Penstrep-1 mL, Heparin-400 μL was added.
(§8) Procedure—The cells were trypsinised and made into single-cell suspension by passing through cell strainers (100 μl and 40 μl, respectively), The cells were diluted at a concentration of 2000 cells/100 μL and suspended in either Mammosphere (for breast cell lines) or Prostosphere (for prostate cell lines). 100 μL of this suspension was added into each well of 96-well suspension plates and incubated at 37° C., 5% CO2 for 24 hrs. Appropriate concentrations of the drugs (2 μL) were added into respective wells with 100 μL of stem cell culture medium. Plates were incubated at 37° C., 50 CO2 for 72 hrs. After incubation, 2.5 μL of the respective drug concentration and 50 μL of stem cell culture medium were added into each well and the plates were further incubated at 37° C., 50% CO2 for 72 hrs. 3 μL of the respective drug concentration was added with 50 μL of stem cell culture medium again after incubation and plates were reincubated for 72 hrs at 37° C., 50 CO2. Number of primary spheres formed for each concentration were counted. The spheres were converted to 0 viability of spheres compared to untreated (Growth Control with DMSO, GCD).

PC3 [8] = experiment: In vitro sphere-forming assay (cancer stem cells), Prostosphere media; conditions: for viability at 0.0025 µM / viability at 0.025 µM / viability at 0.25 µM / viability at 2.5 µM / viability at 25 µM: Homo sapiens, PC-3, read-out: % Viability of spheres (PC3); for 3D sphere count of PC3: Prostosphere media, 2000 cells/well, n = 6 ± S.D
Method: as §7
Prostosphere Media Preparation (For 100 mL):1 g methyl cellulose autoclaved with magnetic stirrer, 100 mL plain media (Prostate Epithelial Basal Medium) was added and dissolved, under magnetic stirring. After complete dissolution, Insulin-40 μL, B27-2 mL, EGF-80 μL, Penstrep-1 ml was added.
as §8

`COc1ccc(OC2=CC(=O)c3c(OCCN4CCOCC4)cccc3C2=O)cc1` [Formula 43, 5-(2-morpholinoethoxy)-2-(4-methoxyphenoxy) naphthalene-1,4-dione] was tested, and the pIC50 (MDAMB231 [1]) was 6.00, the pIC50 (PC3 [2]) was 6.30 and the “anticancer activity in comparison with cisplatin, soft agar, breast cancer cell line” value (MDAMB231 [3]) was “higher anticancer activity in comparison with cisplatin”. For the same compound, the pIC50 (MDAMB231 [3]) was 6.18, the “anticancer activity in comparison with cisplatin, soft agar, prostate cancer cell line” value (PC3 [4]) was “higher anticancer activity in comparison with cisplatin” and the pIC50 (PC3 [4]) was 6.38. For the same compound, the pIC50 (Human lymphocytes; Lymphocyte) was 4.97, the “% inhibition of Wound Healing for Breast Cancer Cell line (MDAMB231) after 48 hrs” value (MDAMB231 [5]) was 53.3% and the “% inhibition of Wound Healing for Prostate Cancer Cell line (PC3) after 48 hrs” value (PC3 [6]) was 50.47%. It also gave a viability at 0.0025 µM (MDAMB231 [7]) of 82%, a viability at 0.025 µM (MDAMB231 [7]) of 61% and a viability at 0.25 µM (MDAMB231 [7]) of 46%. For the same compound, the viability at 2.5 µM (MDAMB231 [7]) was 33%, the viability at 25 µM (MDAMB231 [7]) was 21% and the “3D sphere count of MDAMB231” value (MDAMB231 [7]; drug 0.0025 uM) was 82(±4). The “3D sphere count of MDAMB231” value (MDAMB231 [7]; drug 0.025 uM) was 61(±3), the “3D sphere count of MDAMB231” value (MDAMB231 [7]; drug 0.25 uM) was 46(±3) and the “3D sphere count of MDAMB231” value (MDAMB231 [7]; drug 2.5 uM) was 33(±4). The “3D sphere count of MDAMB231” value (MDAMB231 [7]; drug 25 uM) was 21(±3), the viability at 0.0025 µM (PC3 [8]) was 75% and the viability at 0.025 µM (PC3 [8]) was 57%. The viability at 0.25 µM (PC3 [8]) was 46%, the viability at 2.5 µM (PC3 [8]) was 30% and the viability at 25 µM (PC3 [8]) was 21%. The “3D sphere count of PC3” value (PC3 [8]; drug 0.0025 uM) was 75(±4), the “3D sphere count of PC3” value (PC3 [8]; drug 0.025 uM) was 57(±5) and the “3D sphere count of PC3” value (PC3 [8]; drug 0.25 uM) was 46(±4). The “3D sphere count of PC3” value (PC3 [8]; drug 2.5 uM) was 30(±4) and the “3D sphere count of PC3” value (PC3 [8]; drug 25 uM) was 21(±3).

With `O=C1C=C(N2CCOCC2)C(=O)c2c(OCCN3CCOCC3)cccc21` [Formula 73] the pIC50 (MDAMB231 [1]) was 5.66, the pIC50 (PC3 [2]; Homo sapiens, PC-3, 48 h) was 5.52 and the “anticancer activity in comparison with cisplatin, soft agar, breast cancer cell line” value (MDAMB231 [3]) was “higher anticancer activity in comparison with cisplatin”. The pIC50 (MDAMB231 [3]) was 5.42, the “anticancer activity in comparison with cisplatin, soft agar, prostate cancer cell line” value (PC3 [4]) was “higher anticancer activity in comparison with cisplatin” and the pIC50 (PC3 [4]) was 5.57. The “Activity on Lymphocytes (IC50)” value (Human lymphocytes) was “No activity”, the viability at 0.0025 µM (MDAMB231 [7]) was 87% and the viability at 0.025 µM (MDAMB231 [7]) was 70%. It also gave a viability at 0.25 µM (MDAMB231 [7]) of 50%, a viability at 2.5 µM (MDAMB231 [7]) of 35% and a viability at 25 µM (MDAMB231 [7]) of 19%. The “3D sphere count of MDAMB231” value (MDAMB231 [7]; drug 0.0025 uM) was 62(±4), the “3D sphere count of MDAMB231” value (MDAMB231 [7]; drug 0.025 uM) was 50(±3) and the “3D sphere count of MDAMB231” value (MDAMB231 [7]; drug 0.25 uM) was 36(±4). The “3D sphere count of MDAMB231” value (MDAMB231 [7]; drug 2.5 uM) was 25(±3), the “3D sphere count of MDAMB231” value (MDAMB231 [7]; drug 25 uM) was 14(±3) and the viability at 0.0025 µM (PC3 [8]) was 86%. The viability at 0.025 µM (PC3 [8]) was 68%, the viability at 0.25 µM (PC3 [8]) was 50% and the viability at 2.5 µM (PC3 [8]) was 36%. For the same compound, the viability at 25 µM (PC3 [8]) was 23%, the “3D sphere count of PC3” value (PC3 [8]; drug 0.0025 uM) was 69(±2) and the “3D sphere count of PC3” value (PC3 [8]; drug 0.025 uM) was 55(±3). The “3D sphere count of PC3” value (PC3 [8]; drug 0.25 uM) was 40(±3), the “3D sphere count of PC3” value (PC3 [8]; drug 2.5 uM) was 29(±3) and the “3D sphere count of PC3” value (PC3 [8]; drug 25 uM) was 19(±3).
